In brackets after ≈: the same amount, converted by molar mass.
Legend:
[1] = in vivo; conditions: Balb/c, mouse, po, 10 mg/kg
Protocol: (§3) Tested compounds were formulated at 1 mg/mL as a dosing solution for oral administration in vehicle A: 10% dimethylacetamide (DMAC), 20% propylene glycol, and 40% PEG-400 or vehicle B: 10% Kolliphor® EL and 10% ethanol (EtOH).
(§4) Animals were acclimated for a minimum period of 4 days upon arrival at the testing facility.
(§5) At the day of study, mice were weighed, identified by marking the tail with numbers using a non-toxic permanent marker, and designated into ten experimental groups (n=3 per group).
(§6) Non-dosed mice were used to collect samples of zero time points. […] Blood samples were centrifuged immediately at 9,000 g at 4° C. for 5 minutes and then plasmas were separated. Plasma samples were placed into individually labeled cryovials and stored in a −80° C. freezer until LC/MS/MS bioanalysis.
(§7) The bioanalysis of plasma samples was conducted with a QTRAP 4500 triple quadrupole mass spectrometer (Applied Biosystems SCIEX) in the positive ion mode and interfaced with an Ekspert Ultra LC100 UPLC System (Eksigent). Calibration standards (0.01 to 10 μM) and QCs (0.02, 0.2 and 2.0 μM) were prepared from naïve mouse plasma in parallel with mouse plasma study samples (60 μL) by precipitation with three volumes of ice cold internal standard solution (acetonitrile containing 20 μM of theophylline). The precipitated samples were centrifuged at 6,100 g for 30 min. Following centrifugation, an aliquot of each supernatant was transferred to an autosampler plate and diluted with two volumes of aqueous mobile phase (0.1% formic acid in water). Samples were injected onto a reverse phase analytical column (YMC Triart C18; 2.0×50 mm; 1.9 μm; YMC CO) and eluted with a gradient of 0.1% formic acid in Acetonitrile. Assayed test compound and internal standards were monitored by a multiple reaction monitoring (MRM) experiment using an Analyst software (v1.6.2, Applied Biosystems SCIEX). Quantitation was conducted using a MultiQuant software (v2.1, Applied Biosystems SCIEX) and the resulting calibration curve was fitted with a linear regression and 1/x weighting. The lower limits of quantitation were 1<LLQ <5 ng/mL.

[2] = Kinetic solubility (nephelometry); assay type: physicochemical; conditions: aqueous buffer, kinetic from dmso stock; PBS pH 7.4, 1% DMSO, 1 hour at 37° C., light scattering at 625 nm
Protocol: Concentration (μM) was then calculated by segmental regression. Amiodarone (#A8423 Aldrich) was used as positive control.

[3] = In vitro microsomal stability, rat liver microsomes; assay type: in vitro ADME; conditions: for microsomal CLint at […], 1 µM / half-life at […], 1 µM: pH 7.4, rat liver microsomes; for microsomal CLint at […], 1 µM: intrinsic clearance, read-out: Clint @ rLM; for half-life at […], 1 µM: rat, read-out: T1/2 @ rLM; for Rem. @ rLM (%): remaining fraction after 30 min, 1 μM compound, 0.5 mg/mL rat liver microsomes, 1 mM NADPH
Protocol: (§1) Compounds were incubated at a final concentration of 1 μM with 0.5 mg/mL human liver microsomes (hLM) (#HMMCPL; Thermo), mouse liver microsomes (mLM) (#MSMCPL; Thermo) or rat liver microsomes (rLM) (#RTMCPL; Thermo) and 1 mM reduced dihydronicotinamide-adenine dinucleotide phosphate (NADPH) (#N1630; Sigma) in 100 mM phosphate buffer (pH 7.4) at 37° C. The reactions were terminated at 0, 5, 15 and 30 min by the addition of cold acetonitrile containing 50 ng/mL propranolol as an internal standard. […] Verapamil hydrochloride (#V4369 Aldrich) was used as a positive control in all studies.

[4] = In vitro microsomal stability, human liver microsomes; assay type: in vitro ADME; conditions: for half-life at […], 1 µM: human, read-out: T1/2 @ hLM; for half-life at […], 1 µM / microsomal CLint at […], 1 µM: human liver microsomes, pH 7.4; for microsomal CLint at […], 1 µM: intrinsic clearance, read-out: Clint @ hLM; for Rem. @ hLM (%): remaining fraction after 30 min, 1 μM compound, 0.5 mg/mL human liver microsomes, 1 mM NADPH
Protocol: as §1

[5] = system: ATF6; experiment: ERSE ATF6-luciferase reporter assay (thapsigargin-induced ER stress); assay type: cell-based, human; conditions: Homo sapiens, U2OS, thapsigargin-induced ER stress, U2-OS ATF6 luc reporter cells; for inhibition at 1 µM: 8 h, read-out: Inh. ATF6-Luc @ 1 μM [%], 1 μM test compound, 8 hr; for IC50: read-out: IC50 ATF6-Luc reporter [μM], dose-response 30 μM to 1 nM
[6] = mouse, in vivo, po, 10 mg/kg; for AUCExtr [%] / F [%] / Vz: Balb/c
Protocol: as §3, §4, §5, §6, §7

[7] = target: CYP3A4 (Homo sapiens (Human), UniProt P08684); experiment: CYP inhibition in human liver microsomes; conditions: read-out: CYP-3A4; human liver microsomes; probe substrate midazolam
Chain of CYP3A4 (P08684 whole entry, canonical isoform): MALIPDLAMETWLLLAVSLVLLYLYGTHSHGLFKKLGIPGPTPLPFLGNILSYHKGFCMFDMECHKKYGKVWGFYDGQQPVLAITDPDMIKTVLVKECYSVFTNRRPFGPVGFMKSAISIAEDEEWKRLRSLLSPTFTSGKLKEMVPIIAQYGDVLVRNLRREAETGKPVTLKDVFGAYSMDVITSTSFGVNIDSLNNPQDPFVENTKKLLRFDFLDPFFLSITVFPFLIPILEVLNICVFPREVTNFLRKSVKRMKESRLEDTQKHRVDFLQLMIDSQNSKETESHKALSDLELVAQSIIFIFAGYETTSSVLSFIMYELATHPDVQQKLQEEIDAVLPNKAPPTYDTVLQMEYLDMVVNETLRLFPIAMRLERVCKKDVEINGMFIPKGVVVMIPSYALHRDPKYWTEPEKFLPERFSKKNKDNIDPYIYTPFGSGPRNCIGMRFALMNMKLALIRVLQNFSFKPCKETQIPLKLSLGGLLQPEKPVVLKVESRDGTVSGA
Protocol: (§2) CYP inhibition by test compounds in human liver microsomes (HLM) for seven major CYP450 isoforms CYP1A2, CYP2C9, CYP2D6, CYP2B6, CYP2C8, CYP2C19 and CYP3A4 were assessed. […] 50 μM phenacetin, 2 μM midazolam, 5 μM diclofenac, 50 μM mephenytoin, 80 μM bupropion, and 5 μM dextromethorphan were used as probe substrates of CYP1A2, CYP3A4, CYP2C9, CYP2C19, CYP2B6, and CYP2D6, respectively. The incubation times were 20 min for […], CYP2D6, CYP2C9, CYP2B6, and CYP2C8; 40 min for CYP2C19; and 10 min for CYP 3A4. Following incubations, the reactions were terminated with acetonitrile containing internal standard. The samples were centrifuged and the supernatants were analyzed for the formation of metabolites (1-hydroxymidazolam (CYP3A4), 4-hydroxydiclofenac (CYP2C9), 4-hydroxymephenytoin (CYP2C19) and dextrorphan (CYP2D6), hydroxybupropion (CYP2B6), acetaminophen (CYP1A2), desethylamodiaquine (CYP2C8)) by LC/MS/MS.

[8] = target: CYP2C9 (Homo sapiens (Human), UniProt P11712); experiment: CYP inhibition in human liver microsomes; conditions: read-out: CYP-2C9; human liver microsomes; probe substrate diclofenac
Chain of CYP2C9 (P11712 whole entry): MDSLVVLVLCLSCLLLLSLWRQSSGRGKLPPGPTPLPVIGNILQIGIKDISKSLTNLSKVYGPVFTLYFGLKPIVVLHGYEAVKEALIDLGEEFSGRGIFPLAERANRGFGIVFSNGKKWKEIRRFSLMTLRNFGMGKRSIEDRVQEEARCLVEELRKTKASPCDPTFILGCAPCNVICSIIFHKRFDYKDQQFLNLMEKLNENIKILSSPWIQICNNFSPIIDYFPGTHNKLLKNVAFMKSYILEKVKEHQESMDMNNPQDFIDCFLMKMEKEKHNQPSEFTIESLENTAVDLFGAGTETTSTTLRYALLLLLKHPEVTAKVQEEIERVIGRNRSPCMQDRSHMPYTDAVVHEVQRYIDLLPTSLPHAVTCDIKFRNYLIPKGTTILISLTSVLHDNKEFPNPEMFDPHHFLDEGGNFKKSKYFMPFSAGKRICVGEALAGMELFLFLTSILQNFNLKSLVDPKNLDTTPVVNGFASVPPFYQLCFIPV
Protocol: as §2

[9] = target: CYP2B6 (Homo sapiens (Human), UniProt P20813); experiment: CYP inhibition in human liver microsomes; conditions: read-out: CYP-2B6; human liver microsomes; probe substrate bupropion
Chain of CYP2B6 (P20813 whole entry): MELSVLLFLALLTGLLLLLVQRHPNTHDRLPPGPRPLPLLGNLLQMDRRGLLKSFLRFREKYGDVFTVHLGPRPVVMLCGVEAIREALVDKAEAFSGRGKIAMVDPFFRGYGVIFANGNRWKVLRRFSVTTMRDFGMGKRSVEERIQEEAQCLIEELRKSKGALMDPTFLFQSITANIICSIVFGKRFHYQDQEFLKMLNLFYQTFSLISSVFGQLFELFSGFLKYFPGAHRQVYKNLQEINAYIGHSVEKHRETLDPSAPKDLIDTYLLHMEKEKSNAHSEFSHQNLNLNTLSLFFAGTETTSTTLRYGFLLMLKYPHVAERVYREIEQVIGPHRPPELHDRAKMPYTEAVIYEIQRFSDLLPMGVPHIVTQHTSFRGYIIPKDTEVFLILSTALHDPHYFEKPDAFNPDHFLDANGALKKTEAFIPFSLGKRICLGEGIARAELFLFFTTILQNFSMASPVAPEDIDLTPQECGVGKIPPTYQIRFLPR
Protocol: as §2

[10] = target: CYP2C19 (Homo sapiens (Human), UniProt P33261); experiment: CYP inhibition in human liver microsomes; conditions: read-out: CYP-2C19; human liver microsomes; probe substrate mephenytoin
Chain of CYP2C19 (P33261 whole entry): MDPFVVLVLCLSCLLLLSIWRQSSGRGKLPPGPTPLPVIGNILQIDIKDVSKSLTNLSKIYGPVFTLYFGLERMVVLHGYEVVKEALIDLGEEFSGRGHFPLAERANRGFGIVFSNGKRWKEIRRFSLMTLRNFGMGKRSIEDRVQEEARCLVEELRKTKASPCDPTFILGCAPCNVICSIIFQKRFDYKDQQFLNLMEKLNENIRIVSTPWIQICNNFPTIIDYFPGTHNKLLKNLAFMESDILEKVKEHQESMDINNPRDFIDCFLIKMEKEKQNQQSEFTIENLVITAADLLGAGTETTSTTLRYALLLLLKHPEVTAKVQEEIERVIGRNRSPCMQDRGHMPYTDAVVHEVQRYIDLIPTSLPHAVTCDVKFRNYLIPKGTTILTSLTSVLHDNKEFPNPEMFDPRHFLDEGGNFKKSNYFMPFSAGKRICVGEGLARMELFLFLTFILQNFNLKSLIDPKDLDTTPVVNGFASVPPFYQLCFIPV
Protocol: as §2

[11] = target: CYP2C8 (Homo sapiens (Human), UniProt P10632); experiment: CYP inhibition in human liver microsomes; conditions: read-out: CYP-2C8, metabolite desethylamodiaquine
Chain of CYP2C8 (P10632 whole entry): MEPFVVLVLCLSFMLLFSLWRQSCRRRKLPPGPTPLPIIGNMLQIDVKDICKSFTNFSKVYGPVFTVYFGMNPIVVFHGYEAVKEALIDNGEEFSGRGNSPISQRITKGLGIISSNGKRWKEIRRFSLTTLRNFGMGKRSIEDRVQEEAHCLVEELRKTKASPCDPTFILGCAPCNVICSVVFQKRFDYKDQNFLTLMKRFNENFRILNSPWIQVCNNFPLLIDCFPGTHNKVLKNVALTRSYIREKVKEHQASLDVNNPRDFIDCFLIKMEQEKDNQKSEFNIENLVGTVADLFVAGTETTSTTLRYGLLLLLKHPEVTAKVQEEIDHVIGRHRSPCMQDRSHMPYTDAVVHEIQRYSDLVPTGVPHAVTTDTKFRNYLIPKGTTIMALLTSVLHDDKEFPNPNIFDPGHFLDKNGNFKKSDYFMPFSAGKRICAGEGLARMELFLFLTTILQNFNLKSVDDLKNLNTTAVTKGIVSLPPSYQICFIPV
Protocol: as §2

[12] = target: CYP2D6 (Homo sapiens (Human), UniProt P10635); experiment: CYP inhibition in human liver microsomes; conditions: read-out: CYP-2D6; human liver microsomes; probe substrate dextromethorphan
Chain of CYP2D6 (P10635 whole entry): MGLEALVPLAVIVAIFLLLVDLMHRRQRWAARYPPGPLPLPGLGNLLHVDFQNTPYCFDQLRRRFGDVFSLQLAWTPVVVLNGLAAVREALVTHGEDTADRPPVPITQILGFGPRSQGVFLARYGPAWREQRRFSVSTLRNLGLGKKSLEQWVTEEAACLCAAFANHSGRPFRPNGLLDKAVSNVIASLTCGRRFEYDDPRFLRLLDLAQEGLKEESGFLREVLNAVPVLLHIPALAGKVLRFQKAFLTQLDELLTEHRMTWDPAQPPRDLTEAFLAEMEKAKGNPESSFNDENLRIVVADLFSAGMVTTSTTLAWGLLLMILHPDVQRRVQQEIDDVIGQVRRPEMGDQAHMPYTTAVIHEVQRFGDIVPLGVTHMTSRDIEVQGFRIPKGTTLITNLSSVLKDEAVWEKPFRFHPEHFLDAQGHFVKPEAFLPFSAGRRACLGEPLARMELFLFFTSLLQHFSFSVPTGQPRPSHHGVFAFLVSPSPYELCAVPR
Protocol: as §2

[13] = In vitro microsomal stability, mouse liver microsomes; assay type: in vitro ADME; conditions: for half-life at […], 1 µM: mouse, read-out: T1/2 @ mLM; for half-life at […], 1 µM / microsomal CLint at […], 1 µM: mouse liver microsomes, pH 7.4; for microsomal CLint at […], 1 µM: intrinsic clearance, read-out: Clint @ mLM; for Rem. @ mLM (%): remaining fraction after 30 min, 1 μM compound, 0.5 mg/mL mouse liver microsomes, 1 mM NADPH
Protocol: as §1

Structure (SMILES)	AUC(0-inf) [1] [ng·h/mL]	AUC(0-t) [1] [ng·h/mL]	solubility kinetic at 1 h [2] [µM]	microsomal CLint at […], 1 µM [3] [µL/min/mg]	half-life at […], 1 µM [3] [h]	Rem. @ rLM (%) [3] [%]	half-life at […], 1 µM [4] [h]	microsomal CLint at […], 1 µM [4] [µL/min/mg]	Rem. @ hLM (%) [4] [%]	inhibition at 1 µM [5] [%]	IC50 [5] [µM]	IC50 [7] [µM]	IC50 [8] [µM]	IC50 [9] [µM]	IC50 [10] [µM]	IC50 [11] [µM]	IC50 [12] [µM]	half-life at […], 1 µM [13] [h]	microsomal CLint at […], 1 µM [13] [µL/min/mg]	Rem. @ mLM (%) [13] [%]	other results
O=C(Nc1cnn(Cc2ccc(C(F)(F)F)cc2C(F)(F)F)c1)c1cc(-c2cnccn2)on1 [Compound 114, N-(1-(2,4-bis(trifluoromethyl)benzyl)-1H-pyrazol-4-yl)-5-(pyrazin-2-yl)isoxazole-3-carboxamide]	11900	10300	1.17 (≈ 0.564 µg/mL)	25	0.923	69.7	3.55	6.5	90.4	> 50	< 1	> 50	> 50	> 50	> 50	> 50	> 50	2.75	8.4	86.8	Cmax [1]: 899 ng/mL; Tmax [1]: 0.5 h; half-life [1]: 8.66 h; AUCExtr [%] [6]: 14%; F [%] [6]: 43.3%; Vz [6]: 10.5 L/kg; Last time point for AUClast [6]: 24 h
C[C@H](c1ccc(C(F)(F)F)cc1C(F)(F)F)n1cc(NC(=O)c2cc(-c3ccccn3)no2)cn1 [Compound 76, (R)—N-(1-(1-(2,4-bis(trifluoromethyl)phenyl)ethyl)-1H-pyrazol-4-yl)-3-(pyridin-2-yl)isoxazole-5-carboxamide]	45300	44100	7.03 (≈ 3.48 µg/mL)	34.7	0.665	59.4	0.96	24.1	69.7	> 50	< 1	> 50	6	6.45	3.6	1.14	7.54	1.2	19.3	74.9	Cmax [1]: 5180 ng/mL; Tmax [1]: 1 h; half-life [1]: 4.54 h; AUCExtr [%] [6]: 2.55%; F [%] [6]: 50.6%; Vz [6]: 1.45 L/kg; Last time point for AUClast [6]: 24 h
C[C@H](c1ccc(C(F)(F)F)cc1C(F)(F)F)n1cc(NC(=O)c2nnc(-c3cnccn3)s2)cn1 [Compound 152, (R)—N-(1-(1-(2,4-bis(trifluoromethyl)phenyl)ethyl)-1H-pyrazol-4-yl)-5-(pyrazin-2-yl)-1,3,4-thiadiazole-2-carboxamide]			28.1 (≈ 14.4 µg/mL)	7.2	3.2	86.4	2.32	10	84.4	> 50	< 1	> 50	> 50	> 50	> 50	> 50	> 50	2.12	10.9	82.6	

From patent US20240124434A1, “ATF6 INHIBITORS AND USES THEREOF” (Altos Labs, Inc., priority 2018, published 2024)
